Reference: patent US7326732B2, “EP2 receptor agonists” (Pharmagene Laboratories Limited, priority 2004, dated 2008)

What was measured:
[1] = target: T1, human EP2 prostanoid receptors (Homo sapiens, UniProt P43116); test: Agonist activity at recombinant human EP2 prostanoid receptors (cAMP in HEK-293 clones); format: cell-based; conditions: for EC50: HEK-293 stably transfected with human EP2, cAMP accumulation, read-out: pEC50 EP2 (converted); for activity (EP2 part): functional classification at EP2
T1 construct: expressed in transfected cells; host or cells: HEK-293
T1 sequence (P43116 whole entry): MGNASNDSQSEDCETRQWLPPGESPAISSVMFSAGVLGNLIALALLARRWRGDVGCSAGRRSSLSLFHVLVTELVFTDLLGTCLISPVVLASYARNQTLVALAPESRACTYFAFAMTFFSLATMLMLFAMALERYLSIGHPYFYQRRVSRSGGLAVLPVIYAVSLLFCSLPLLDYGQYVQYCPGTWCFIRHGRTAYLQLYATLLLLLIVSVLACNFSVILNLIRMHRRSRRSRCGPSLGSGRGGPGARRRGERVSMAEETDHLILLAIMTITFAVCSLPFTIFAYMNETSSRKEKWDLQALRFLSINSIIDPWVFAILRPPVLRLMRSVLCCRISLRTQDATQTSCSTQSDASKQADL

human EP4 receptor = target: T2, human EP4 receptor (Homo sapiens, UniProt P35408); test: Binding ability to human EP receptors ([3H]PGE2 displacement), EP4; conditions: membranes expressing human EP4; [3H]PGE2 1 nM; Cheng-Prusoff; read-out: pKi (M) EP4 (converted)
T2 construct: expressed in transfected cells
T2 sequence (P35408 whole entry): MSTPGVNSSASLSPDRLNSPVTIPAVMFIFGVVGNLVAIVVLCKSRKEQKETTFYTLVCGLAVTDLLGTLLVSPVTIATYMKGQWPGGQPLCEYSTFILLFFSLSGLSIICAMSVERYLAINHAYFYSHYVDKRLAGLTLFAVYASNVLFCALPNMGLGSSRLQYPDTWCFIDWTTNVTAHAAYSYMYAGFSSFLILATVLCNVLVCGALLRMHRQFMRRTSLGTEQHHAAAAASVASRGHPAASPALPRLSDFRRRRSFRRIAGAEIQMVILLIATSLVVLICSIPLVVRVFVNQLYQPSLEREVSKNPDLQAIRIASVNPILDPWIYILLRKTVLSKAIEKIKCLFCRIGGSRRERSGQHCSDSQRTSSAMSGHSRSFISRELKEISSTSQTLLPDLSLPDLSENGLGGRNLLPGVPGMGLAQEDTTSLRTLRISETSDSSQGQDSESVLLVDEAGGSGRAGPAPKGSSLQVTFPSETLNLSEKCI
Procedure, shortened: (§1)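 Membranes from cells stably expressing human EP2, EP3 or EP4 incubated to equilibrium with [3H]PGE2 and compound at 0.1 to 10 000 nM. Non-specific binding defined with 10 uM PGE2; bound label separated by vacuum filtration and quantified by scintillation counting.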

human EP2 receptor = target: T3, human EP2 receptor (Homo sapiens, UniProt P43116); test: Binding ability to human EP receptors ([3H]PGE2 displacement), EP2; conditions: membranes expressing human EP2; [3H]PGE2 3 nM; Cheng-Prusoff; read-out: pKi (M) EP2 (converted)
T3 construct: expressed in transfected cells
T3 sequence (P43116 whole entry): as the sequence (P43116 whole entry) above
Procedure, shortened: as §1

human EP3 receptor = target: T4, human EP3 receptor (Homo sapiens, UniProt P43115); test: Binding ability to human EP receptors ([3H]PGE2 displacement), EP3; conditions: membranes expressing human EP3; [3H]PGE2 2.5 nM; Cheng-Prusoff; read-out: pKi (M) EP3 (converted)
T4 construct: expressed in transfected cells
T4 sequence (P43115 1-390): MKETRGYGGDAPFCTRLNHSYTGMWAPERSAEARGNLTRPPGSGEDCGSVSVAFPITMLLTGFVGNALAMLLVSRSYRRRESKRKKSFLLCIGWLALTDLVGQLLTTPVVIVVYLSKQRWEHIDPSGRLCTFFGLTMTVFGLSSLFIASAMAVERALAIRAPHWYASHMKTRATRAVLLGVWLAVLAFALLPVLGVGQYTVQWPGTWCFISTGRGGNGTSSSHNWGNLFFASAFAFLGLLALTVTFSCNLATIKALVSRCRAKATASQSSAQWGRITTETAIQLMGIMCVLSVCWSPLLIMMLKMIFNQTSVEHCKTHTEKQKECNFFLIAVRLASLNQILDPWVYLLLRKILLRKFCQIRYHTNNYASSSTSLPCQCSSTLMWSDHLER
Procedure, shortened: as §1

| Compound | EC50 [1] [µM] | activity (EP2 part) [1] | Ki (human EP4 receptor) [M] | Ki (human EP2 receptor) [M] | Ki (human EP3 receptor) [M] |
| --- | --- | --- | --- | --- | --- |
| O=C(Nc1ccc2sc(C(=O)O)cc2c1)c1ccc(-c2ccccc2)o1 [Compound 97, 5-[(5-Phenyl-furan-2-carbonyl)-amino]-benzo[b]thiophene-2-carboxylic acid] | < 1 | EP2 Agonist | > 1e-05 | < 1e-06 | > 1e-05 |
| O=C(O)/C=C/c1cccc(NC(=O)c2ccc(-c3cccc(F)c3)o2)c1 [Compound 100, 3-(3-{[5-(3-Fluoro-phenyl)-furan-2-carbonyl]-amino}-phenyl)-acrylic acid] | < 0.1 | EP2 Agonist | < 1e-05 | < 1e-07 | > 1e-05 |
| O=C(O)/C=C/c1cccc(NC(=O)c2ccc(-c3ccc4c(c3)OCO4)o2)c1 [Compound 101, 3-{3-[(5-Benzo[1,3]dioxol-5-yl-furan-2-carbonyl)-amino]-phenyl}-acrylic acid] | < 0.1 | EP2 Agonist | > 1e-05 | < 1e-07 | > 1e-05 |
| O=C(O)/C=C/c1cccc(NC(=O)c2cc(-c3cccc(F)c3)ccc2F)c1 [Compound 108, 3-{3-[(4,3′-Difluoro-biphenyl-3-carbonyl)-amino]-phenyl}-acrylic acid] | < 0.1 | EP2 Agonist | > 1e-05 | < 1e-07 | > 1e-05 |
| O=C(O)Cc1cccc(NC(=O)c2cc(-c3cccc(F)c3)ccc2F)c1 [Compound 111] | < 0.1 | EP2 Agonist | > 1e-05 | < 1e-07 | > 1e-05 |
| O=C(O)/C=C/c1cccc(NC(=O)c2cc(-c3ccc(F)cc3)ccc2F)c1 [Compound 112, 3-{3-[(4,4′-Difluoro-biphenyl-3-carbonyl)-amino]-phenyl}-acrylic acid] | < 0.1 | EP2 Agonist | > 1e-05 | < 1e-07 | > 1e-05 |
| O=C(O)/C=C/c1cccc(NC(=O)c2csc(-c3cccc(F)c3)n2)c1 [Compound 116, 3-(3-{[2-(3-Fluoro-phenyl)-thiazole-4-carbonyl]-amino}-phenyl)-acrylic acid] | < 0.1 | EP2 Agonist | > 1e-05 | < 1e-07 | > 1e-05 |
| Cn1c(C(=O)O)cc2cc(NC(=O)c3ccc(-c4ccccc4)o3)ccc21 [Compound 118, 1-Methyl-5-[(5-phenyl-furan-2-carbonyl)-amino]-1H-indole-2-carboxylic acid] | < 0.1 | EP2 Agonist | > 1e-05 | < 1e-06 | > 1e-05 |
| O=C(O)/C=C/c1cccc(CC(=O)c2ccc(-c3ccccc3)o2)c1 [Compound 120, 3-{3-[2-Oxo-2-(5-phenyl-furan-2-yl)-ethyl]-phenyl}-acrylic acid] | < 1 | EP2 Agonist | > 1e-05 | < 1e-05 | > 1e-05 |
| O=C(O)/C=C/c1cccc(OCc2csc(-c3ccccc3)n2)c1 [Compound 121, 3-[3-(2-Phenyl-thiazol-4-ylmethoxy)-phenyl]-acrylic acid] | < 1 | EP2 Agonist | > 1e-05 | < 1e-06 | > 1e-05 |
| O=C(O)Cc1cccc(NC(=O)c2ccc(-c3cc(F)cc(F)c3)o2)c1 [Compound 127, (3-{[5-(3,5-Difluoro-phenyl)-furan-2-carbonyl]-amino}-phenyl)-acetic acid] | < 0.1 | EP2 Agonist | > 1e-05 | < 1e-07 | > 1e-05 |

Now from value to compound:

| EC50 [1] [µM] | activity (EP2 part) [1] | Ki (human EP4 receptor) [M] | Ki (human EP2 receptor) [M] | Ki (human EP3 receptor) [M] | Compound |
| --- | --- | --- | --- | --- | --- |
| < 0.1 | EP2 Agonist | > 1e-05 | < 1e-07 | > 1e-05 | O=C(Nc1cccc(Cc2nnn[nH]2)c1)c1ccc(-c2cc(Cl)cc(Cl)c2)o1 [Compound 82, 5-(3,5-Dichloro-phenyl)-furan-2-carboxylic acid [3-(1H-tetrazol-5-ylmethyl)-phenyl]-amide] |
| < 0.1 | EP2 Agonist | > 1e-05 | < 1e-07 | > 1e-05 | O=C(Nc1cccc(Cc2nnn[nH]2)c1)c1ccc(-c2ccc(F)cc2)o1 [Compound 85, 5-(4-Fluoro-phenyl)-furan-2-carboxylic acid [3-(1H-tetrazol-5-ylmethyl)-phenyl]-amide] |
| < 0.1 | EP2 Agonist | > 1e-05 | < 1e-07 | > 1e-05 | O=C(Nc1cccc(Cc2nnn[nH]2)c1)c1ccc(-c2ccc(Cl)cc2)o1 [Compound 87, 5-(4-Chloro-phenyl)-furan-2-carboxylic acid [3-(1H-tetrazol-5-ylmethyl)-phenyl]-amide] |
| < 0.1 | EP2 Agonist | > 1e-05 | < 1e-07 | > 1e-05 | O=C(Nc1cccc(/C=C/c2nnn[nH]2)c1)c1ccc(-c2ccccc2)o1 [Compound 89, 5-Phenyl-furan-2-carboxylic acid {3-[2-(1H-tetrazol-5-yl)-vinyl]-phenyl}-amide] |
| < 0.1 | EP2 Agonist | > 1e-05 | < 1e-07 | > 1e-05 | O=C(Nc1cccc(/C=C/c2nnn[nH]2)c1)c1ccc(-c2cccc(Cl)c2)o1 [Compound 90, 5-(3-Chloro-phenyl)-furan-2-carboxylic acid {3-[2-(1H-tetrazol-5-yl)-vinyl]-phenyl}-amide] |
| < 0.1 | EP2 Agonist | > 1e-05 | < 1e-06 | > 1e-05 | O=C(Nc1cccc(Cc2nnn[nH]2)c1)c1cccc(-c2ccccc2)n1 [Compound 92, 6-Phenyl-pyridine-2-carboxylic acid [3-(1H-tetrazol-5-ylmethyl)-phenyl]-amide] |
| < 0.1 | EP2 Agonist | > 1e-05 | < 1e-07 | > 1e-05 | O=C(Nc1cccc(Cc2nnn[nH]2)c1)c1cccc(-c2ccc(F)cc2)n1 [Compound 93, 6-(4-Fluoro-phenyl)-pyridine-2-carboxylic acid [3-(1H-tetrazol-5ylmethyl)-phenyl]-amide] |
| < 0.1 | EP2 Agonist | > 1e-05 | < 1e-07 | > 1e-05 | O=C(Nc1cccc(Cc2nnn[nH]2)c1)c1cccc(-c2cccc(F)c2)n1 [Compound 94, 6-(3-Fluoro-phenyl)-pyridine-2-carboxylic acid [3-(1H-tetrazol-5ylmethyl)-phenyl]-amide] |
| < 0.1 | EP2 Agonist | > 1e-05 | < 1e-07 | > 1e-05 | O=C(Nc1cccc(Cc2nnn[nH]2)c1)c1cccc(-c2ccc(Cl)cc2)n1 [Compound 95, 6-(4-Chloro-phenyl)-pyridine-2-carboxylic acid [3-(1H-tetrazol-5ylmethyl)-phenyl]-amide] |
| < 1 | EP2 Agonist | > 1e-05 | < 1e-06 | > 1e-05 | CC/C(=C\c1cccc(NC(=O)c2ccc(-c3ccccc3)o2)c1)C(=O)O [Compound 98, 2-{3-[(5-Phenyl-furan-2-carbonyl)-amino]-benzylidene}-butyric acid] |
| < 0.1 | EP2 Agonist | > 1e-05 | < 1e-07 | > 1e-05 | O=C(O)/C=C/c1cccc(NC(=O)c2cc(-c3ccccc3)ccc2F)c1 [Compound 107, 3-{3-[(4-Fluoro-biphenyl-3-carbonyl)-amino]-phenyl}-acrylic acid] |
| < 0.1 | EP2 Agonist | > 1e-05 | < 1e-07 | > 1e-05 | O=C(O)/C=C/c1cccc(NC(=O)c2cccc(-c3cccc(F)c3)n2)c1 [Compound 110, 3-(3-{[6-(3-Fluoro-phenyl)-pyridine-2-carbonyl]-amino}-phenyl)-acrylic acid] |
| < 0.1 | EP2 Agonist | > 1e-05 | < 1e-07 | > 1e-05 | O=C(O)Cc1cccc(NC(=O)c2cccc(-c3cccc(F)c3)n2)c1 [Compound 113, (3-{[6-(3-Fluoro-phenyl)-pyridine-2-carbonyl]-amino}-phenyl)-acetic acid] |
| < 0.1 | EP2 Agonist | > 1e-05 | < 1e-07 | > 1e-05 | O=C(O)/C=C/c1cccc(NC(=O)c2csc(-c3ccccc3)n2)c1 [Compound 115, 3-{3-[(2-Phenyl-thiazole-4-carbonyl)-amino]-phenyl}-acrylic acid] |
| < 10 | EP2 Agonist | > 1e-05 | < 1e-06 | > 1e-05 | O=C(O)Cc1cccc(C(=O)Nc2cccc(-c3ccccc3)c2)c1 [Compound 117, [3-(Biphenyl-3-ylcarbamoyl)-phenyl]-acetic acid] |
